Where a name gives a salt, the structure may show the parent alone.
Tests used:
[1] = Hygroscopicity, % weight gain in 1 week at 56% and 98% relative humidity; format: physicochemical; conditions: one week at 56% / 98% RH
[2] = 0.05 M phosphate buffer, pH 7.0 and 2.5

SMILES: Nc1ncn([C@@H]2O[C@H](CO)C(O)C2O)c(=O)n1 (stereo partly shown) [Compound 19, azacitidine mesylate]
- hygroscopicity compared with free base (in words) [1]: more hydroscopic than free azacitidine
- rate of dissolution compared with free base (in words) (1.0 mg in water): less than the free azacitidine base
- Dissolution In water (1.0 mg/mL) (time to dissolve, with Sonication): 1 min
- solution stability compared with free base (in words) [2]: slightly less than the free azacitidine base

Source: US20100062992A1 (SuperGen, Inc., priority 2004, published 2010)
